Results on one substance are retold here after patent publication US20120214743A1, “ITCH SUPPRESSANT” (University of Occupational and Environmental Health, Japan, priority 2009, published 2012).

Ends that are not written are not given here. * marks the point of attachment. SO3H = O=S(=O)(O)*

One assay deals with FSMCs. Briefly: Confocal imaging of intracellular Ca in FSMCs. It counts as cell-based, mouse. The protocol: Confocal imaging of cells loaded with fluorescent dyes was undertaken using a Zeiss LSM5 pascal (Carl Zeiss, Jena, Germany). Fluo-4-AM (Invitrogen) (1 μM) was loaded at 37° C. for 20 min and washed twice and sit at least for 40 min. Mast cells, were stained for CD117 (c-kit) with Alexa Fluor 700-conjugated anti-mouse CD117 antibody. The LSM5 multi-track configuration was used for simultaneous measurement of intracellular Ca concentration (Ca) (excitation, 488 nm; emission, long-pass 505 nm filter) and the expression of CD117 (excitation, 633 nm; emission, long-pass 650 nm filter). Images were recorded at room temperature with 512×512 pixels. The application of stimulation, such SP and CCK, were applied directly in the bath as a small drop ([…]). Image data were analyzed off-line using the Zeiss LSM510 analyzing software (LSM Image Examiner).
Thus, it is likely that CCK8S affects signaling in mast cells.

The next assay relates to NHEKs. Briefly: IL-8 production in NHEK (cytometric bead array). Particulars: CCK8S 10^−9, 10^−8 or 10^−7 M, Ca 0.15 mM or 0.6 mM, FIG. 5A. It counts as cell-based, human. As to the method:
IL^-8 concentration in the culture supernatants was quantified with Cytometric Bead Array (CBA) Flex Set System purchased from BD using FACSCanto (BD).
NHEKs were stimulated with various concentrations of CCK8S (CCK8S concentration of 10^−9, 10^−8, or 10^−7 M, Ca concentration of 0.15 mM or 0.6 mM).

The test system of assay [1] is FSMCs (mouse fetal skin derived mast cells). Briefly: β-Hexosaminidase assay, compound 48/80-induced degranulation of FSMCs. It counts as cell-based. Particulars: CCK8S at 10^−8 or 10^−7 M, 15 min at 37° C., FIG. 5B. The protocol:
FSMCs were washed with Tyrode's buffer (Sigma), and resuspended at 2×10^4 cells per well into a 96 well plate. FSMCs were treated with compound 48/80 with or without CCK8S for 15 min at 37° C. The plate was centrifuged for 5 min and supernatant was placed into another 96 well and cell pellet were resuspended with 0.5% Triton X-100 (Sigma) in Tyrode's buffer. Supernatant and cell lysate (50 μl) was incubated with 100 μl 4 mM p-nitrophenyl-N-acetyl-β-D-galactosaminide (Sigma), dissolved in citrate buffer, pH4.5, at 37 ° C. for 90 min. The reaction is stopped with 200 μl 0.2M Glycine (MP Biomedicals, Solon, Ohio), pH10.7. The plate was read at 405 nm using a reference filter 595 nm by Microplate Reader (Bio-Rad, Hercules, Calif.). β-hexosaminidase release was determined as the ratio between activity in the supernatant and cell lysate multiplied by 100.
The addition of compound 48/80 induces degranulation in FSMCs.

Assay [2] concerns ICR mice. Briefly: Contact hypersensitivity (CHS) mouse model to DNFB, ear swelling. It counts as in vivo. Particulars: 0.5 nmol/ear painted immediately before DNFB challenge, measured 24 hours after challenge; FIG. 5C. The protocol: For induction of CHS to 2,4-dinitrofluorobenzene (DNFB; Nakalai Tesque, Kyoto, Japan), ICR mice were sensitized on two consecutive days, days 0 and 1, on the clipped abdomen with 25 μL of 0.5% of DNFB diluted in acetone/olive oil (3:1). Five days later, animals were challenged on both sides of each ear by painting a nonirritant concentration of 0.2% DNFB. Before challenge, CCK8S (0.5 nmol/ear) diluted in acetone/olive oil (3:1) or only acetone/olive oil (control) was painted on each ear. The ear thickness of mice was measured using dial thickness gauge before and 24 hours after challenge. Ear swelling was calculated from the difference in ear thickness between before and after challenge.
In CHS model, mice were sensitized with DNFB (2,4-dinitrofluorobenzene), a haptene, and the contact hypersensitivity raised by DNFB at day 5 lead to ear swelling.

The test system of assay [3] is ICR mice. Briefly: SP-induced scratch behavior in ICR mice. It counts as in vivo, mouse. The protocol: Since it is considered that external administration of CCK affects keratinocytes, at first, CCK2R agonist was administered transdermally (applying the solution prepared using acetone-olive (3:1)) to itch-related behavior model (ICR mice administered intradermally with SP (100 nmol)).
The hair was clipped over the rostral part of the murine back one or two days prior to experiment. Before behavioral recording, each mouse (4 animals per observation) was put into an acrylic cage (18×23×11 cm) for at least 1 hr for acclamation. An intradermal injection of SP (100 nmol in normal saline per site) induces scratching of the skin around the injected site by the hind paws in mice. CCKs were topically applied in the two ways, percutaenous application and intradermal injection. For percutaneous application, the shaved back skin was stripped with Scotch tape (3M) 6 times the day before the experiment. The mice were painted on the clipped back with 20 μL CCK (0.5 nmol/site) in acetone/olive (3:1) 3-4 minutes before SP injection (100 nmol/site). […] Immediately after treatment, the animals were put back into the same cage and their behavior was videotaped using a digital video camera for 40 minutes. The frequency of scratch toward the injected site by hind paws was counted for the first 20 minutes with the video.

As to “Asp-Tyr(SO3H)-Met-Gly-Trp-Met-Asp-Phe-NH2 (DY(SO3H)MGWMDF-NH2) [CCK8S, natural type cholecystokinin, tyrosine at seventh position from C-terminal sulfated]”, the “percentage of responding FSMCs” value in the assay on FSMCs (Ca response after CCK8S, FIG. 6 bottom) came to 45%. The “change of intracellular Ca concentration” value with FSMCs (FSMCs, Fluo-4-AM, FIG. 6 top) is listed as “transient increase”. Moreover, the “time to transient increase in Ca after the administration” value in the assay with FSMCs (FSMCs, FIG. 6 top) is not above 1 min. Also, the “production of IL-8” value in the assay with NHEKs was “decreased in accordance with the concentration”. Besides, the “degranulation (β-hexosaminidase release) induced by compound 48/80” value in assay [1] is listed as “suppression of degranulation was observed”. In addition, in the assay with ICR mice [2], the ear swelling result is given as “suppressed”. Further, the “scratch behavior (frequency of scratch, first 20 minutes)” value with ICR mice [3] (subcutaneous administration, 0.5 nmol/site in saline simultaneously with SP 100 nmol, FIG. 3B) was “depressed”; in the assay with ICR mice [3] (transdermal, 0.5 nmol/site in acetone/olive (3:1), tape-stripped skin, 3-4 minutes before SP 100 nmol/site intradermal, FIG. 3), “significant reduction”.
